Test results from EP1116715A1, “Tetramic acid derivatives useful in medicines and foodstuffs” (priority 2000, dated 2001).
Converted amounts (≈) assume the structure as drawn.

Assays:
Type in all cases: cell-based
Bakterien = test: antibacterial activity of synthetic product compared with natural reutericyclin; settings: relative to natural reutericyclin
Excerpt: (§1) Das Wirkungsspektrum von Reutericyclin wurde mit Hilfe des Naturstoffes untersucht, der aus Lactobacillus reuteri LTH 2584 wie oben beschrieben isoliert wurde. Die antimikrobielle Aktivität wurde gegenüber einer Vielzahl unterschiedlicher Bakterien getestet. Hierfür wurden Verdünnungstest auf Mikrotiterplatten durchgeführt. Kulturen der verschiedenen Bakterien wurden mit Verdünnungen der erfindungsgemässen Verbindung behandelt und die Konzentration bestimmt, die eine Hemmung des Wachstums der Bakterien im Vergleich mit Kontrollen beobachten ließ.
Dies liegt vermutlich daran, daß 6 im Gegensatz zum natürlichen Reutericyclin als Razemat vorliegt.

Hefen = test: microtitre plate dilution test, growth inhibition; settings: yeasts; at the tested concentrations
[1] = test system: Lactobacillus sanfranciscensis (ATCC27651); test: microtitre plate dilution test, minimal inhibitory concentration; settings: natural product isolated from Lactobacillus reuteri LTH 2584; growth inhibition versus controls; read-out: minimale inhibitorische Konzentration
Excerpt: as §1
(§2) Diese sogenannte minimale inhibitorische Konzentration wurde für das Bakterium Lactobacillus sanfranciscensis (ATCC27651) mit 0,1 +/-0,05 mg/l bestimmt.

[2] = test system: Antibiotika-resistente klinische Isolate (Enterococcus Faecalis); test: microtitre plate dilution test, antibiotic-resistant clinical isolates; settings: no cross-resistance found
Excerpt: as §1
(§3) Einige humanpathogene Keime, wie beispielsweise Enterococcus Faecalis (DSM20409) erwies sich sogar noch als deutlich empfindlicher gegenüber Reutericyclin. Hier bewirkte eine Konzentration von etwa 0,05 mg/l eine Hemmung des Wachstums der Bakterien. […] Es war also keine Kreuzresistenz festzustellen.

L. sakei (LTH673) = test: microtitre plate dilution test, growth inhibition; settings: compared with L. sanfranciscensis (MIC 0,1 +/-0,05 mg/l)
Excerpt: as §1, §2

L. curvatus (LTH1174) = test: microtitre plate dilution test, growth inhibition; settings: compared with L. sanfranciscensis (MIC 0,1 +/-0,05 mg/l)
Excerpt: as §1, §2

[3] = test system: Enterococcus Faecalis (DSM20409); test: microtitre plate dilution test, growth inhibition; settings: natural product, read-out: Konzentration, die eine Hemmung des Wachstums der Bakterien bewirkte
Excerpt: as §1, §3

[4] = test system: Staphylocokus aureus (SG511); test: microtitre plate dilution test, growth inhibition; settings: compared with Lactobacillus sanfranciscensis
Excerpt: as §1

[5] = test system: Listeria ivanovii (DSM20750); test: microtitre plate dilution test, growth inhibition; settings: compared with Lactobacillus sanfranciscensis
Excerpt: as §1

Escherichia coli = test: microtitre plate dilution test, growth inhibition; settings: Gram-negative bacteria; at the tested concentrations
Excerpt: as §1

SMILES | Menge für gleiche Ergebnisse wie eine Menge des natürlichen Reutericyclins (Bakterien; as a rule) | antibakterielle Wirkung (Bakterien) | Empfindlichkeit gegenüber Reutericyclin (Hefen) | MIC [1] | Empfindlichkeit gegenüber Reutericyclin [2] | Empfindlichkeit gegenüber Reutericyclin (L. sakei (LTH673)) | Empfindlichkeit gegenüber Reutericyclin (L. curvatus (LTH1174)) | MIC [3] | Empfindlichkeit gegenüber Reutericyclin [4] | Empfindlichkeit gegenüber Reutericyclin [5] | Empfindlichkeit gegenüber Reutericyclin (Escherichia coli)
CCCCCCC/C=C/C(=O)N1C(O)=C(C(C)=O)C(=O)C1CC(C)C (racemic) [compound 6, N-trans-2-Decenoyl-3-acetyl-5-iso-butylpyrrolidin-2,4-dion] | doppelte Mengen | etwas schwächer | – | – | – | – | – | – | – | – | –
CCCCCCC/C=C/C(=O)N1C(O)=C(C(C)=O)C(=O)[C@H]1CC(C)C [Reutericyclin, 5R-1-(2-trans-Decenoyl)-3-acetyl-5-isobutyl-delta2-pyrrolin4-on] | – | – | nicht empfindlich | 0.1 µg/mL (≈ 0.286 µM) | ebenfalls eine Empfindlichkeit | sehr ähnliche Empfindlichkeiten | sehr ähnliche Empfindlichkeiten | ~0.05 µg/mL (≈ 0.143 µM) | in einer entsprechenden Größenordnung wie Lactobacillus sanfranciscensis | in einer entsprechenden Größenordnung wie Lactobacillus sanfranciscensis | nicht empfindlich
